# Values quoted from earlier work, collected in paper PMC10114980, “Triple targeting of mutant EGFR^L858R/T790M, COX-2, and 15-LOX: design and synthesis of novel quinazolinone tethered phenyl urea derivatives for anti-inflammatory and anticancer evaluation” (Journal of Enzyme Inhibition and Medicinal Chemistry, 2023).
# Tested on: EGFR
# Details: Figure 2; cited from earlier work
row,Structure (SMILES),IC50
1,O=C(CNc1ccc(Cl)cc1)Cn1c(-c2ccccc2)nc2ccccc2c1=O [G],81 nM
2,Cc1cccc(Cl)c1NC(=O)Nc1ccc(-c2nc(NCCN(C)C)c3ccccc3n2)cc1 [I],56 nM
